Target: human NaV subtype, like NaV 1.7 (Homo sapiens, UniProt Q15858)
Assay: E-VIPR optical membrane potential assay with electrical stimulation
Type: cell-based
Settings: active against one or more sodium channels; Table 3 does not name the assay or NaV subtype; read-out: Binned Activity Data (IC50)

Chain of human NaV subtype, like NaV 1.7 (Q15858 whole entry): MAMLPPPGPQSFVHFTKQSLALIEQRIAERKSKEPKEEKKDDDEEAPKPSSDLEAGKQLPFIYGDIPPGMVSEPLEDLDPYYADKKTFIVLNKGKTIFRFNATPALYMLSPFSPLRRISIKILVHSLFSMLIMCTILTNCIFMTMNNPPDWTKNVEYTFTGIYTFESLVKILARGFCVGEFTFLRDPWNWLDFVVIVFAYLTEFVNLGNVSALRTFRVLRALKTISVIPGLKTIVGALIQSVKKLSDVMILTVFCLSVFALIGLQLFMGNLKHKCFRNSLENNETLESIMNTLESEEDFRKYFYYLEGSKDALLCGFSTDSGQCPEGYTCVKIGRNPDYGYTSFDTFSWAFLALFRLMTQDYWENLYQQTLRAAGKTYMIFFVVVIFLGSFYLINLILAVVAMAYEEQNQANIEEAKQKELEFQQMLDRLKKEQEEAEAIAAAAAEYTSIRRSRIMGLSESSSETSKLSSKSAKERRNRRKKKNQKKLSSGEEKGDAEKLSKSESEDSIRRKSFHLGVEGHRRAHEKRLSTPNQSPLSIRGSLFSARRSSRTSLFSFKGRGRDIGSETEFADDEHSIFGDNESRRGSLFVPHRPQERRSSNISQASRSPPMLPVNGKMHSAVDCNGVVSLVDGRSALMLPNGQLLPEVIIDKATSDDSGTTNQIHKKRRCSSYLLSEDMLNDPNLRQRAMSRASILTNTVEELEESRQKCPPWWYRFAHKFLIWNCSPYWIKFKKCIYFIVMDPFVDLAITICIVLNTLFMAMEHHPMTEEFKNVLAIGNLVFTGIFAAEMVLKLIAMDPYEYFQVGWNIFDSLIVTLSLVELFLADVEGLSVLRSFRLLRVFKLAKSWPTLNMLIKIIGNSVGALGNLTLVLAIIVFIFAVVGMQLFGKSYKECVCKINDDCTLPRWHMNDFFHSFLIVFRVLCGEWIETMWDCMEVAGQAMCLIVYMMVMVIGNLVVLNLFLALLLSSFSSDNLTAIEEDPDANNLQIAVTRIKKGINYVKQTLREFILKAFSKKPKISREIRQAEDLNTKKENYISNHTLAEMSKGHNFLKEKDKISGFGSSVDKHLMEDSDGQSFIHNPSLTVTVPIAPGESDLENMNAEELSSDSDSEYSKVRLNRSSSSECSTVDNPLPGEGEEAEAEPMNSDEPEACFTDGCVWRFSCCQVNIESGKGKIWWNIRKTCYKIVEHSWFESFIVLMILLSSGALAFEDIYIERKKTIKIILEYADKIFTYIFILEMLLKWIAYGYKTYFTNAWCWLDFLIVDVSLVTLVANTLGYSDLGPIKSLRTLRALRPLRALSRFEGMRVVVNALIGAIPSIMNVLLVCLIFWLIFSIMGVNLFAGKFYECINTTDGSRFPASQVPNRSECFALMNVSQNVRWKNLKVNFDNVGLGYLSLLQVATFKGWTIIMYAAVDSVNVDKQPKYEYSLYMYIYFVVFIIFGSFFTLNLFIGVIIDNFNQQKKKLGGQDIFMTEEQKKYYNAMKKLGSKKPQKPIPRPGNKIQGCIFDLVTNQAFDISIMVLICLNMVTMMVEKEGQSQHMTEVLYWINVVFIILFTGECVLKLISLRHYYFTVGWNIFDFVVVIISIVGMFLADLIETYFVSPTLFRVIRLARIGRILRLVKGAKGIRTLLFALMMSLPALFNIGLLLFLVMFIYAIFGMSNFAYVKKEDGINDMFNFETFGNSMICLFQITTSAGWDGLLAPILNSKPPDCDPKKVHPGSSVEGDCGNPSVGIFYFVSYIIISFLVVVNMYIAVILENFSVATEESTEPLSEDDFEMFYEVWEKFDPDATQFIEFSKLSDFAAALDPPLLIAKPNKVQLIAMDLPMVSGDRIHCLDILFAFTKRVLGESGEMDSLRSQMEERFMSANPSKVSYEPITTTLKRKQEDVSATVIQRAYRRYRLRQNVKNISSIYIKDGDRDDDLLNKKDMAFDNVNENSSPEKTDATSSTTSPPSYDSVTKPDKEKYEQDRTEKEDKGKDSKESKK

Row | Structure (SMILES) | IC50
1 | CN1CCn2c(C(F)(F)F)ccc2C12CCN(C(=O)c1cnn3c(C(F)F)cc(C4CC4)nc13)CC2 [Compound 21] | > 5 µM
2 | CN1CCn2c(C(=O)C(F)(F)F)ccc2C12CCN(C(=O)c1ccc(OCC(F)(F)F)cc1)CC2 [Compound 175] | ≤ 2 µM
3 | O=C(c1ccnc2ccccc12)N1CCC2(CC1)NCCn1c(C(F)(F)F)ccc12 [Compound 527] | > 5 µM
4 | Cc1cc(C(=O)N2CCC3(CC2)c2ccc(C(=O)C(F)(F)F)n2CCN3C)ccc1O [Compound 201] | ≤ 2 µM
5 | CN1CCn2c(ccc2S(C)(=O)=O)C12CCN(C(=O)c1ccc(C3CCCCC3)cc1)CC2 [Compound 302] | 2 to 5 µM
6 | COc1cc(C(=O)N2CCC3(CC2)c2ccc(C(=O)C(F)(F)F)n2CCN3C)ccc1-c1ccccc1 [Compound 555] | ≤ 2 µM
7 | COc1cc(C(=O)N2CCC3(CC2)NC(C)(C)Cn2cc(C(C)=O)cc23)ccc1C(C)(C)C [Compound 364] | > 5 µM
8 | C[C@H]1Cn2c(C(=O)C(F)(F)F)ccc2C2(CCN(C(=O)c3ccc(COCCC(F)(F)F)cc3)CC2)N1C [Compound 449] | ≤ 2 µM
9 | CN1CCn2c(ccc2C(F)(F)C(F)(F)F)C12CCN(C(=O)c1ccc(S(=O)(=O)C(C)(C)C)cc1)CC2 [Compound 464] | ≤ 2 µM
10 | CC(=O)c1ccc2n1CC(C)(C)NC21CCN(C(=O)c2ccc(OC(C)C)c(C(F)(F)F)c2)CC1 [Compound 610] | ≤ 2 µM
11 | CN1CCn2c(Cl)ccc2C12CCN(C(=O)c1ccc(N3CCCCC3)cc1)CC2 [Compound 195] | > 5 µM
12 | Cc1cc(C(=O)N2CCC3(CC2)c2ccc(C(=O)C(F)(F)F)n2CCN3C)ccc1-c1ccc(C#N)nc1 [Compound 216] | ≤ 2 µM
13 | CCc1ccc(C(=O)N2CCC3(CC2)c2ccc(C(=O)C(F)(F)F)n2CCN3C)cc1 [Compound 26] | 2 to 5 µM
14 | CN1CCn2c(C(=O)C3(C)CC3)ccc2C12CCN(C(=O)c1ccc(O)c(Cl)c1)CC2 [Compound 19] | ≤ 2 µM
15 | CCOC(=O)N1CCn2c(C#N)ccc2C12CCN(C(=O)c1ccc(OC(C)C)c(C)n1)CC2 [Compound 729] | ≤ 2 µM
16 | CCOc1ccc(C(=O)N2CCC3(CC2)c2ccc(C(C)=O)n2CCN3C)cc1OCC [Compound 416] | > 5 µM
17 | COc1cc(C(=O)N2CCC3(CC2)c2ccc(C(=O)C(F)(F)F)n2C(C)CN3C)ccc1OCCOC(F)(F)F (centres unmarked) [Compound 114] | ≤ 2 µM
18 | Cc1cc(C(=O)N2CCC3(CC2)c2ccc(C(=O)C(F)(F)F)n2C(C)CN3C)ccc1OC(C)C (centres unmarked) [Compound 355] | ≤ 2 µM
19 | CCCOc1ccc(C(=O)N2CCC3(CC2)c2ccc(C(C)=O)n2CCN3C)cc1OC [Compound 586] | 2 to 5 µM
20 | CCCCOc1cc(C(=O)N2CCC3(CC2)NCCn2c(C(F)(F)F)ccc23)ccc1OC [Compound 241] | > 5 µM
21 | CN1CCn2c(C(=O)C(F)(F)F)ccc2C12CCN(C(=O)c1ccc(S(=O)(=O)NC3CC3)cc1)CC2 [Compound 33] | ≤ 2 µM
22 | COc1cc(C(=O)N2CCC3(CC2)NCC(C)(C)n2c(C(F)(F)F)ccc23)ccc1OC(C)C [Compound 405] | ≤ 2 µM
23 | COc1c(F)cccc1C(=O)N1CCC2(CC1)c1ccc(C(=O)C(F)(F)F)n1C[C@H](C)N2C [Compound 264] | ≤ 2 µM
24 | COc1ccc(C(=O)N2CCC3(CC2)c2cc(C(=O)C(F)(F)F)cn2C(C)(C)CN3C)cc1C [Compound 239] | > 5 µM

Row | Structure (SMILES) | IC50
25 | COc1ccc(C(=O)N2CCC3(CC2)c2ccc(C(=O)C(F)(F)F)n2CCN3C)cc1Cl [Compound 697] | ≤ 2 µM
26 | Cc1cc(C(F)F)n2ncc(C(=O)N3CCC4(CC3)c3ccc(C(F)(F)F)n3CCN4C)c2n1 [Compound 371] | ≤ 2 µM
27 | CC1(C)CNC2(CCN(C(=O)c3ccc(S(=O)(=O)NC4CC4)cc3)CC2)c2ccc(C(F)(F)F)n21 [Compound 76] | > 5 µM
28 | COC(=O)N1CCn2c(C(F)(F)F)ccc2C12CCN(C(=O)c1ccc(C(C)(C)O)c(C)c1)CC2 [Compound 683] | ≤ 2 µM
29 | Cc1cc(C(=O)N2CC[C@]3(c4ccc(C(F)(F)F)n4CCN3C)[C@H](F)C2)ccc1C(C)(C)O [Compound 350] | ≤ 2 µM
30 | CN1CCn2c(C(=O)C(F)(F)F)ccc2C12CCN(C(=O)c1ccc(-c3ccccc3F)cn1)CC2 [Compound 725] | > 5 µM
31 | CC[C@H](C)Oc1ccc(C(=O)N2CCC3(CC2)NCCn2c(C(F)(F)F)ccc23)cc1OC [Compound 522] | ≤ 2 µM
32 | Cc1cc(C(=O)N2CCC3(CC2)NC(C)Cn2c(C(F)(F)F)ccc23)ccc1OC(C)C (centres unmarked) [Compound 222] | ≤ 2 µM
33 | CN1CCn2c(C(F)(F)F)ccc2C12CCN(C(=O)c1cccnc1N1CCC(F)(F)C1)CC2 [Compound 392] | 2 to 5 µM
34 | CCCCOc1ccc(C(=O)N2CCC3(CC2)c2ccc(C(=O)C(F)(F)F)n2CCN3C)cc1OC [Compound 146] | ≤ 2 µM
35 | COc1cc(C(=O)N2CCC3(CC2)c2ccc(C(C)=O)n2CCN3C)ccc1C(C)(C)C [Compound 56] | ≤ 2 µM
36 | CC(=O)c1ccc2n1CCN(C)C21CCN(C(=O)c2ccc(OC(F)(F)F)cc2)CC1 [Compound 577] | > 5 µM
37 | CC(=O)c1ccc2n1CCN(C)C21CCN(C(=O)c2ccc(C3CCCCC3)cc2)CC1 [Compound 559] | ≤ 2 µM
38 | COc1cc(C(=O)N2CCC3(CC2)NC(C)(C)Cn2c(C(=O)C(F)(F)F)ccc23)ccc1OC(C)C [Compound 375] | ≤ 2 µM
39 | Cc1cc(C(=O)N2CCC3(CC2)c2ccc(C(=O)C(F)(F)F)n2CCN3C)ccc1-c1cnc(N(C)C)nc1 [Compound 621] | ≤ 2 µM
40 | CC(=O)c1ccc2n1CCN(C)C21CCN(C(=O)c2ccc(C(OCC(F)(F)F)OCC(F)(F)F)c(Cl)c2)CC1 [Compound 739] | > 5 µM
41 | COc1ccc(C(=O)N2CCC3(CC2)c2ccc(C(=O)C(C)(C)C)n2CCN3C)cc1C [Compound 314] | ≤ 2 µM
42 | CN1CCn2c(C(=O)C(C)(C)C)ccc2C12CCN(C(=O)c1ccc(S(=O)(=O)C(C)(C)C)cc1)CC2 [Compound 680] | ≤ 2 µM
43 | CC(=O)c1ccc2n1CCN(C)C21CCN(C(=O)c2cccc3cccnc23)CC1 [Compound 472] | > 5 µM
44 | O=C(c1ccccc1Oc1ccccc1)N1CCC2(CC1)NCCn1c(C(F)(F)F)ccc12 [Compound 43] | > 5 µM
45 | CC(C)Oc1ccc(C(=O)N2CCC3(CC2)c2ccc(C(=O)C4(C)CC4)n2CCN3C)cc1CO [Compound 656] | ≤ 2 µM
46 | COc1cc(C(=O)N2CCC3(CC2)NC(C)(C)Cn2c(C(=O)C(F)(F)F)ccc23)ccc1OCCC(C)C [Compound 686] | ≤ 2 µM
47 | CC1Cn2c(C(F)(F)F)ccc2C2(CCN(C(=O)c3ccc(OC(C)C)cc3F)CC2)N1 (centres unmarked) [Compound 427] | ≤ 2 µM

Now from value to molecule:

Row | IC50 | Structure (SMILES)
48 | ≤ 2 µM | CC(C)Oc1ccc(C(=O)N2CCC3(CC2)NCCn2c(C(F)(F)F)ccc23)cc1Cl [Compound 135]
49 | ≤ 2 µM | CCCCOc1cc(C(=O)N2CCC3(CC2)c2ccc(C(F)(F)F)n2CCN3C)ccc1OC [Compound 212]
50 | ≤ 2 µM | CC(C)Oc1ccc(C(=O)N2CCC3(CC2)c2ccc(C(F)(F)F)n2CCN3C)cc1CO [Compound 709]
51 | > 5 µM | COc1cc(C(=O)N2CC[C@@]3(C[C@@H]2C)c2ccc(C(F)(F)F)n2CCN3C)ccc1OC(C)C [Compound 614]
52 | ≤ 2 µM | COc1ccc(C(=O)N2CCC3(CC2)c2ccc(C(=O)C(C)C)n2CCN3C)cc1C [Compound 338]
53 | > 5 µM | Cc1ccc(C(=O)N2CCC3(CC2)c2ccc(C(F)(F)F)n2CCN3C)cc1 [Compound 319]
54 | > 5 µM | CC(C)Oc1ccc(C(=O)N2CCC3(CC2)c2ccc(Cl)n2CCN3C)cc1F [Compound 25]
55 | 2 to 5 µM | Cc1cc(C(=O)N2CCC3(CC2)c2ccc(C(F)(F)F)n2CCN3CC(N)=O)ccc1OC(C)C [Compound 571]
56 | ≤ 2 µM | CC(C)Oc1ccc(C(=O)N2CCC3(CC2)c2c(Cl)cc(C(F)(F)F)n2CCN3C)c(F)c1 [Compound 602]
57 | 2 to 5 µM | CN1CCn2c(C(F)(F)F)cc(F)c2C12CCN(C(=O)c1ccc(C3CC3)cc1)CC2 [Compound 184]
58 | ≤ 2 µM | CC(C)C(O)c1ccc(C(=O)N2CCC3(CC2)c2ccc(C(F)(F)F)n2CCN3C)cc1 (centres unmarked) [Compound 150]
59 | ≤ 2 µM | COc1cc(C(=O)N2CCC3(CC2)NCCn2c(C(F)(F)F)ccc23)ccc1OC(C)C [Compound 372]
60 | ≤ 2 µM | Cc1cc(C(=O)N2CCC3(CC2)c2ccc(CC(F)(F)F)n2CCN3C)ccc1OC(C)C [Compound 279]
61 | ≤ 2 µM | COc1cc(C(=O)N2CCC3(CC2)c2ccc(C(F)(F)F)n2CCN3C2CC2)ccc1OC(C)C [Compound 690]
62 | > 5 µM | CC(=O)c1ccc2n1CCN(C)C21CCN(C(=O)c2ccc(OC(C)C)c(F)c2)CC1 [Compound 734]
63 | 2 to 5 µM | CC(C)Oc1ccc(C(=O)N2CC[C@]3(c4ccc(C(F)(F)F)n4CCN3C)[C@H](F)C2)cc1CO [Compound 202]
64 | > 5 µM | COc1cc(C(=O)N2CCC3(CC2)c2ccc(C(F)(F)F)n2CCN3C(C)=O)ccc1OC(C)C [Compound 170]
65 | ≤ 2 µM | Cc1cc(C(=O)N2CCC3(CC2)c2c(Br)cc(C(F)(F)F)n2CCN3C)ccc1OC(C)C [Compound 340]
66 | ≤ 2 µM | CC(C)Oc1ccc(C(=O)N2CCC3(CC2)c2c(F)cc(C(F)(F)F)n2CCN3C)cc1F [Compound 436]
67 | 2 to 5 µM | COc1cc(C(=O)N2CCC3(CC2)c2ccc(C(F)(F)F)n2CCN3C2CCC2)ccc1OC(C)C [Compound 317]
68 | 2 to 5 µM | COc1cc(C(=O)N2CCC3(CC2)c2ccc(C(F)(F)F)n2C(CO)CN3C)ccc1OC(C)C (centres unmarked) [Compound 719]
69 | > 5 µM | Cc1cccc(C(=O)N2CCC3(CC2)c2ccc(C(F)(F)F)n2CCN3C)c1 [Compound 109]
70 | ≤ 2 µM | Cc1cc(C(=O)N2CCC3(CC2)c2ccc(C(=O)C(C)(C)C)n2CCN3C)ccc1OC(C)C [Compound 199]
71 | ≤ 2 µM | CC(C)Oc1ccc(C(=O)N2CCC3(CC2)NC(C)(C)Cn2c(C(F)(F)F)ccc23)cc1F [Compound 655]
72 | ≤ 2 µM | COc1cc(C(=O)N2CCC3(CC2)c2c(F)cc(C(F)(F)F)n2CCN3C)ccc1OCC(C)C [Compound 188]
73 | ≤ 2 µM | COCCN1CCn2c(C(F)(F)F)ccc2C12CCN(C(=O)c1ccc(OC(C)C)c(CO)c1)CC2 [Compound 336]
74 | > 5 µM | COc1ccc(C(=O)N2CCC3(CC2)c2ccc(C(F)(F)F)n2CCN3C)cc1 [Compound 351]

Reference: US8916565B2, “Pyrrolopyrazine-spirocyclic piperidine amides as modulators of ion channels” (priority 2011, dated 2014)
